These results are taken from patent US9573913B2, “Cathepsin cysteine protease inhibitors” (Merck Sharp & Dohme Corp., priority 2013, dated 2017).

In test [1] the target is human cathepsin K (UniProt P43236). Nature of the test: Cathepsin K Assay (hrbCat K). Format: biochemical. Conditions: Z-Leu-Arg-AMC substrate, pH 5.5, 15 min preincubation; read-out: hrbCat K (IP (nM)). A digest of the protocol:
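Human cathepsin K (0.4 nM) was preincubated 15 min at room temperature with compound in 50 mM MES pH 5.5, 2.5 mM EDTA, 2.5 mM DTT and 10% DMSO. Inhibition was fitted to a dose-response model.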

The target in test [2] is T1, human cathepsin F (Homo sapiens, UniProt Q9UBX1).
T1 sequence (Q9UBX1 271-484): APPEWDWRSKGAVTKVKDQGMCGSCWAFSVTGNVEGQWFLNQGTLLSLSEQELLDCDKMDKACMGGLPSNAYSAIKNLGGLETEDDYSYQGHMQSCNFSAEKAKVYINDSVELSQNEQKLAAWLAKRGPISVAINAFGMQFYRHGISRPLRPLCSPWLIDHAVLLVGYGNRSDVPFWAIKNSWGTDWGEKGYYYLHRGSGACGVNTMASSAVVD
The test is described as follows: Cathepsin F assay (hCat F). It counts as biochemical. Particulars: Z-Phe-Arg-AMC substrate, pH 5.5, 15 min preincubation; read-out: hCat F (IP (nM)). A digest of the protocol:
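Enzyme (10 nM) was preincubated 15 min at room temperature with compounds (1/3 DMSO dilution series, 500–0.025 μM) in 50 mM MES pH 5.5, 2.5 mM EDTA, 2.5 mM DTT, 10% DMSO. Z-Phe-Arg-AMC (8 μM) was added and AMC fluorescence (Ex 360/Em 460 nm) followed for 20 min. % inhibition was fitted to dose-response curves.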

Regarding `Cc1nc([C@@H]2CC[C@H](F)C[C@H]2C(=O)N[C@@H](C)C#N)c(-c2ccc(N3CCOCC3)cc2)s1` [Example 230, (1R,2R,5S)-N-((S)-1-cyanoethyl)-5-fluoro-2-(2-methyl-5-(4-morpholinophenyl)thiazol-4-yl)cyclohexane-carboxamide], the IC50 in test [1] amounted to 45.5 nM; in test [2], 3330 nM.
As for `C[C@@H](C#N)NC(=O)[C@@H]1C[C@@H](F)CC[C@H]1c1nc(C2(C(F)(F)F)CC2)sc1-c1ccc(N2CCS(=O)(=O)CC2)cc1` [Example 231, (1R,2R,5S)-N-((S)-1-cyanoethyl)-2-(5-(4-(1,1-dioxidothiomorpho-lino)phenyl)-2-(1-(trifluoromethyl)cyclopropyl)thiazol-4-yl)-5-fluorocyclohexane-carboxamide], the IC50 in test [1] was found to be 2.8 nM; in test [2], 3140 nM.
The matching figures for `N#CC1(NC(=O)[C@@H]2C[C@@H](F)CC[C@H]2c2nc(C3(C(F)(F)F)CC3)sc2-c2ccc(N3CCS(=O)(=O)CC3)cc2)CC1` [Example 232, (1R,2R,5S)-N-(1-cyanocyclopropyl)-2-(5-(4-(1,1-dioxidothiomorpho-lino)phenyl)-2-(1-(trifluoromethyl)cyclopropyl)thiazol-4-yl)-5-fluorocyclohexane-carboxamide]: 5 nM and at least 10000 nM.
The matching figures for `C[C@@H](C#N)NC(=O)[C@@H]1C[C@@H](F)CC[C@H]1c1nc(CF)sc1-c1ccc(N2CCS(=O)(=O)CC2)cc1` [Example 237, (1R,2R,5S)-N-((S)-1-cyanoethyl)-2-(5-(4-(1,1-dioxidothiomorpho-lino)phenyl)-2-(fluoromethyl)thia-zol-4-yl)-5-fluorocyclohexane-carboxamide]: 4.1 nM and 6830 nM.
The corresponding values for `N#CC1(NC(=O)[C@@H]2C[C@@H](F)CC[C@H]2c2nc(CF)sc2-c2ccc(N3CCS(=O)(=O)CC3)cc2)CC1` [Example 238, (1R,2R,5S)-N-(1-cyanocyclopropyl)-2-(5-(4-(1,1-dioxidothiomorpho-lino)phenyl)-2-(fluoromethyl)thia-zol-4-yl)-5-fluorocyclohexane-carboxamide] are 3.5 nM and 3170 nM.
Consider `Cc1nc([C@@H]2CC[C@H](F)C[C@H]2C(=O)N[C@@H](C)C#N)c(-c2ccc(N3CCC(F)(F)CC3)cc2)s1` [Example 239, (1R,2R,5S)-N-((S)-1-cyanoethyl)-2-(5-(4-(4,4-difluoropiperidin-1-yl)phenyl)-2-methylthiazol-4-yl)-5-fluorocyclohexane-carboxamide], for which the IC50 in test [1] was 8.5 nM; in test [2], 5340 nM.
The matching figures for `Cc1nc([C@@H]2CC[C@H](F)C[C@H]2C(=O)NC2(C#N)CC2)c(-c2ccc(N3CCC(F)(F)CC3)cc2)s1` [Example 240, (1R,2R,5S)-N-(1-cyanocyclopropyl)-2-(5-(4-(4,4-difluoropiperidin-1-yl)phenyl)-2-methylthiazol-4-yl)-5-fluorocyclohexane-carboxamide]: 8 nM and 7120 nM.
As for `Cc1nc([C@@H]2CC[C@H](F)C[C@H]2C(=O)N[C@@H](C)C#N)c(-c2ccc(N3CCC(C)(O)CC3)cc2)s1` [Example 241, (1R,2R,5S)-N-((S)-1-cyanoethyl)-5-fluoro-2-(5-(4-(4-hydroxy-4-methylpiperidin-1-yl)phenyl)-2-methylthiazol-4-yl)cyclohexane-carboxamide], the IC50 in test [1] is 34.9 nM; in test [2] it was at least 10000 nM.
The corresponding values for `Cc1nc([C@@H]2CC[C@H](F)C[C@H]2C(=O)NC2(C#N)CC2)c(-c2ccc(N3CCC(C)(O)CC3)cc2)s1` [Example 242, (1R,2R,5S)-N-(1-cyanocyclopropyl)-5-fluoro-2-(5-(4-(4-hydroxy-4-methylpiperidin-1-yl)phenyl)-2-methylthiazol-4-yl)cyclohexane-carboxamide] are 26.3 nM and at least 10000 nM.
The corresponding values for `Cc1nc([C@@H]2CC[C@H](F)C[C@H]2C(=O)NC2(C#N)CC2)c(-c2ccc(N3CCC(S(C)(=O)=O)CC3)cc2)s1` [Example 243, (1R,2R,5S)-N-(1-cyanocyclopropyl)-5-fluoro-2-(2-methyl-5-(4-(4-(methylsulfonyl)piperidin-1-yl)phenyl)thiazol-4-yl)cyclohexane-carboxamide] are 5.3 nM and 8430 nM.
The corresponding values for `Cc1nc([C@@H]2CC[C@H](F)C[C@H]2C(=O)N[C@@H](C)C#N)c(-c2ccc(N3CCC(S(C)(=O)=O)CC3)cc2)s1` [Example 244, (1R,2R,5S)-N-((S)-1-cyanoethyl)-5-fluoro-2-(2-methyl-5-(4-(4-(methylsulfonyl)piperidin-1-yl)phenyl)thiazol-4-yl)cyclohexane-carboxamide] are 4.7 nM and 7740 nM.
`Cc1nc([C@H]2CCCC[C@@H]2C(=O)NCC#N)c(-c2ccc(C(=O)N3CCOCC3)cc2)s1` [Example 248, (1S,2S)-N-(cyanomethyl)-2-(2-methyl-5-(4-(morpholine-4-carbonyl)phenyl)thiazol-4-yl)cyclohexanecarboxamide]: the IC50 was 6600 nM in test [1] and at least 10000 nM in test [2].
Consider `N#CC1(NC(=O)[C@@H]2C[C@@H](F)CC[C@H]2c2nc(C(F)F)sc2-c2ccc(N3CCS(=O)(=O)CC3)cc2)CC1` [Example 2219, (1R,2R,5S)-N-(1-cyanocyclopropyl)-2-(2-(difluoromethyl)-5-(4-(1,1-dioxidothiomorpho-lino)phenyl)thiazol-4-yl)-5-fluorocyclohexane-carboxamide], for which the figures for the IC50 in test [1] and in test [2] were 1.8 nM and 4860 nM, respectively.
